Data set [1] can be described thus: Metabolic stability in mouse microsomes. It counts as in vitro ADME. The following applies: for recovery at 30 min, 10 µM: mouse liver microsomes, read-out: Microsomal stability (mouse) recovery of parent compound after 30 min (%); for microsomal stability, comparison in words: mouse microsomes. Here is the method: A 5 mM compound solution was prepared in DMSO. A mixture of 713 μL milliQ water (Milli-Q Direct 8, Merck Millipore), 200 μL 0.5 M phosphate buffer (BD Diagnostic Systems, 257385), 50 μL NADPH regenerating system solution A (BD Biosciences), 10 μL NADPH regenerating system solution B (BD Biosciences) and 2 μL compound solution was prepared and heated for 5 min at 37° C. 25 μL of liver microsomes (Corning B.V. Life Sciences) was added to the mixture and 20 μL samples were withdrawn at 0, 15, 30, 60, 120, 240 and 360 minutes. 80 μL (4×20 μL) of cold acetonitrile (Sigma-Aldrich) was added to the samples on ice for 10 minutes. Afterwards, the mixtures were centrifuged at 13000 rpm for 5 minutes at 4° C. A volume of 75 μL of an acetonitrile/water (10/90) mixture was added to 25 μL supernatant and the obtained samples were analyzed by LC-MS/MS in triplicate.
In general terms: Liver microsomes are vesicles of endoplasmic reticulum, rich in cytochrome P450 enzymes.

The nature of data set [2]: Plasma stability in mouse plasma. It counts as in vitro ADME. The following applies: for recovery at 1 h, 50 µM: Non Swiss Albino, 37° C., read-out: Plasma stability (mouse) recovery of parent compound after lh (%); for plasma stability compared to the non-halogenated analogues: comparison in words. Here is the method: A 10 mM compound solution was prepared in DMSO (Acros). A 5 μL aliquot was added to 995 μL of mouse plasma (Non Swiss Albino Mouse Plasma, sodium citrate, DivBioScience, IMS-N) to obtain a final solution of 50 μM. The mixture was gently shaken for 6 hours at 37° C. Aliquots of 100 μL were taken at various time points (0, 30, 60, 120, 180, 360 minutes) and diluted with 400 μL of cold methanol (Sigma-Aldrich) (stored at 4° C.). The suspension was centrifuged at 14000 rpm for 5 minutes. Afterwards, 50 μL of the supernatant was diluted with 950 μL of methanol and analyzed with LC-MS/MS (Waters Acquity H-class UPLC system with ion trap mass spectrometer, Bruker Daltonics Esquire 3000 plus, and Agilent 1100 Series LC system). The samples were analyzed in triplicate. A standard curve was plotted using compound concentrations of 3.12-100 μM in mouse plasma.

Data set [3] has as its system autophagy. In words: Cellular screening assay for autophagy inhibitors (in our hands). It counts as cell-based.
Data set [4] relates to autophagy. The following applies: cited from earlier work.
For data set [5], the system named is Jurkat T-cells. In words: CYTO-ID-based phenotypical screening for autophagy inhibition. It counts as cell-based. The following applies: Homo sapiens, tested at 10 mM concentration + 10 μM everolimus, everolimus-treated = 1 (normalized), control 0.37, read-out: CYTOID assay (autophagy relative to the everolimus-treated group). The procedure:
Final compounds were screened for autophagy/Atg4B inhibition in 3 different assays: a gel-based screening for Atg4B inhibition, a CYTO-ID-based phenotypical screening for autophagy inhibition and a luciferase reporter assay for assessment of intracellular Atg4B inhibition. Initially, all compounds were evaluated using the SDS-PAGE-based screening assay. Each test compound was incubated with [LC3B-GST], a fusion protein of LC3B and glutathione-S-transferase, and Atg4B in Tris-HCl buffer for a fixed time period. Afterwards, residual fusion protein and cleavage products were separated by gel electrophoresis and quantified using optical densitometry. Based on the % of uncleaved substrate, compound activity was expressed as % enzyme inhibition at 500 μM compound concentration. A set of compounds was then subjected to a CYTO ID-based assay (Stankov et al., 2014). This assay is based on selective labelling of autophagic vacuoles in Jurkat T-cells. Quantification of the stained autophagic compartments can then be used for assessment of autophagy modulation. Autophagy induction was obtained by addition of 10 μM everolimus in EtOH in the presence of 10 μM test compound and autophagy inhibition was monitored as a decline in autophagic vacuoles and the corresponding fluorescent signal. […]

Data set [6] has as its target T1, HsAtg4B (Homo sapiens, UniProt Q9Y4P1).
T1 sequence (Q9Y4P1 1-393): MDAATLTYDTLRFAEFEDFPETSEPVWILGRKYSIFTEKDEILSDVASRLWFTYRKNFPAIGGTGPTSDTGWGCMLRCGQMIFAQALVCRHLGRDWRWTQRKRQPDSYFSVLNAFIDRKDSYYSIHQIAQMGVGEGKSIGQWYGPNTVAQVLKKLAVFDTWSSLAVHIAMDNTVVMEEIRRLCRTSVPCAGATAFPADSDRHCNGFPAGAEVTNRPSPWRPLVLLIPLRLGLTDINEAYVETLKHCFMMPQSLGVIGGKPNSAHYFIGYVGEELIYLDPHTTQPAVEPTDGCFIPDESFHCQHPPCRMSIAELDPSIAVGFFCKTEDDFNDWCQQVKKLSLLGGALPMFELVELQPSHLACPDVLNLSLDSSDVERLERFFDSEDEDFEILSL
In words: SDS-PAGE-based screening assay for Atg4B inhibition (cleavage of LC3B-GST). It counts as biochemical. The following applies: 500 μM compound concentration; LC3B-GST substrate, 6 minutes; read-out: SDS-PAGE Enzyme inhibition (%).
Description: For each assay, fresh aliquots of enzyme and substrate were thawn, and fresh buffer was used. All substrate and enzyme dilutions were made in LoBind Eppendorf® tubes. Buffer used in the following methods for making appropriate dilutions consisted of 50 mM Tris-HCl pH 7.4, 150 mM NaCl, 2 mM DTT and 0.1% TWEEN 20, freshly prepared at the day of the experiment. 10 μL of Laemmli Sample Buffer was added to each sample to stop enzymatic cleavage of LC3B-GST and the samples were boiled for 4 minutes. The samples were loaded onto a NuPAGE® Novex 12 Bis-Tris 1.0 mm 15 well gel after termination of the enzymatic reaction. A Thermo-Scientific® PageRuler Prestained Protein Ladder was used as a reference for molecular weights of the separated proteins. […] Lane densities were quantified using Totallab Quant® software.

Molecules are shown by their SMILES. Read-outs that look alike come from different tables or passages of the source.

Regarding `O=C(O)c1cc(O)c(=O)c2c(O)c(O)ccc2c1` [Shu et al.], the recovery at 30 min, 10 µM in data set [1] (value obtained using linear interpolation) was found to be 100%. Moreover, the recovery at 1 h, 50 µM in data set [2] worked out at 0%. The “activity in a cellular screening assay for autophagy inhibitors” value in data set [3] is reported as “did not show activity”. In data set [4], the “autophagy inhibition reported by Shu et al.” value was “weak autophagy inhibitor”. Also, in data set [4] (in cellulo), the “in cellulo autophagy inhibition (reported)” value is listed as “no in cellulo autophagy inhibition”.
For the molecule `CCCCOC(=O)c1cc(O)c(=O)c2c(O)c(O)c(Br)cc2c1` [Compound 40, Butyl 2-bromo-3,4,6-trihydroxy-5-oxo-5H-benzo[7]annulene-8-carboxylate], the recovery at 30 min, 10 µM in data set [1] (37° C.) was 23 ± 7%. Moreover, the “microsomal stability, comparison in words” value in data set [1] is on record as “substantial increase”. Besides, in data set [2], the recovery at 1 h, 50 µM worked out at 87 ± 4% and the “plasma stability compared to the non-halogenated analogues” value is “substantial increase”.
Take `Cn1cnc(N)c2ncnc1-2` [Compound 3-MA, 3-Methyladenine, reference compound]: in data set [5], the activity at 10000 µM is 57%.
`O=C(O)c1cc(O)c(=O)c2c(O)c(O)c(Br)cc2c1` [Compound 36, 2-bromo-3,4,6-trihydroxy-5-oxo-5H-benzo[7]annulene-8-carboxylic acid]: in data set [1] (37° C.), the recovery at 30 min, 10 µM was 100%. In addition, in data set [1], the “microsomal stability, comparison in words” value was “substantial increase”. Moreover, in data set [2], the recovery at 1 h, 50 µM came to 19 ± 1% and the “plasma stability compared to the non-halogenated analogues” value was “substantial increase”.
Turning to `NC(=O)c1cc(O)c(=O)c2c(O)c(O)c(F)cc2c1` [Compound 31, 2-fluoro-3,4,6-trihydroxy-5-oxo-5H-benzo[7]annulene-8-carboxamide], the inhibition (commonly the change of the read-out against control, counted positive when it falls) at 500 µM in data set [6] is 39.9%.

Values taken from US10738002B2, “Halogenated benzotropolones as ATG4B inhibitors” (Universiteit Antwerpen, priority 2016, dated 2020).
